# Data published in patent US20250313604A1, “PEPTIDE PHARMACEUTICALS FOR INSULIN RESISTANCE” (Mederis Diabetes LLC, priority 2014, published 2025).
# Non-standard residues stand in square brackets, D forms with d. Residues, ends and D or L forms follow the SMILES beside them. *: point of attachment. GlcA(β-D,1-O-dodecyl) = CCCCCCCCCCCCO[C@@H]1O[C@H](C(=O)*)[C@@H](O)[C@H](O)[C@H]1O; αMeF = C[C@](N)(Cc1ccccc1)C(=O)O; Aib = CC(C)(N)C(=O)O
# Legend:
# db/db mice = assay: In vivo assay in db/db mice (blood glucose, body weight, food consumption)
# [1] = Plasma protease stability; assay type: in vitro ADME; conditions: incubation at 30 degC, t=0-8 hrs, LC-MS (FIG. 8)
# Procedure: Standard and QC Sample Preparation: i. […] Make standard working solutions in 50% CH3CN with the stock solution. […] Spiked 10 μL of the working solutions into 90 μL blank plasma and vortex them, iv. […] Transfer the supernatant into an HPLC injection plate for loading on the HPLC column, vi.
# glucagon R = target: T1, glucagon R (Homo sapiens, UniProt P47871); assay: Cerep cellular assay, stimulation of cAMP levels, glucagon (human, cloned into CHO cells); assay type: cell-based
# T1 construct: host or cells: CHO cells
# T1 sequence (P47871 26-477): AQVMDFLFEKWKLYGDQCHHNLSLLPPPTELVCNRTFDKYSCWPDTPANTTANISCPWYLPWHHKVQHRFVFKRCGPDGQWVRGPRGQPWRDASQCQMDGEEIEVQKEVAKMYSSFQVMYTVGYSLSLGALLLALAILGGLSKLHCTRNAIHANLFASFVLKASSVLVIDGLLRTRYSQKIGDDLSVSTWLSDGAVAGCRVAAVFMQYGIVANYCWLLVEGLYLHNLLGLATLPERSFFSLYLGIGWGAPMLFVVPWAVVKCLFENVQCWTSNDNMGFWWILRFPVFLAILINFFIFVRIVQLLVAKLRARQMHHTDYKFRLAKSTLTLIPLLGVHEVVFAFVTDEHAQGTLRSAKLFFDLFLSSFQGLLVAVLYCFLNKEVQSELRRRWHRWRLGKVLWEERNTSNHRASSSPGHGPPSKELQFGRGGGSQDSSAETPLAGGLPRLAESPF
# Procedure: Compounds were weighed precisely in an amount of approximately 1 mg and assayed in standard cellular assays (Cerep SA). The readout is the amount of cAMP generated in the cells treated with the test compounds, in either agonist or antagonist mode. […] The assays are described in Chicchi, G. G., et al. (1997) J Biol Chem 272:7765-7769 and Runge, S., et al. (2003) Br J Pharmacol 138:787-794.
SMILES,"db/db mice - Mean Blood Glucose (db/db mice; 250 nmole/kg s.c., 0 hr)","db/db mice - Mean Blood Glucose (db/db mice; 250 nmole/kg s.c., 10 hr)","db/db mice - Mean Blood Glucose (db/db mice; 250 nmole/kg s.c., 24 hr)","db/db mice - Mean Blood Glucose (db/db mice; 250 nmole/kg s.c., 48 hr)",amount of intact compound in the human plasma versus time [1],GLCR cellular response (glucagon R),"db/db mice - Mean Blood Glucose (db/db mice; 50 nmole/kg s.c., 0 hr)","db/db mice - Mean Blood Glucose (db/db mice; 50 nmole/kg s.c., 10 hr)","db/db mice - Mean Blood Glucose (db/db mice; 50 nmole/kg s.c., 24 hr)","db/db mice - Mean Blood Glucose (db/db mice; 50 nmole/kg s.c., 48 hr)"
"CCCCCCCCCCCCO[C@@H]1O[C@H](C(=O)NCCCC[C@H](NC(=O)[C@@H](NC(=O)[C@H](Cc2ccccc2)NC(=O)[C@H](CCC(=O)O)NC(=O)[C@@H]2CCCCNC(=O)CC[C@H](NC(=O)[C@H](CC(=O)O)NC(=O)[C@H](CC(C)C)NC(=O)[C@H](Cc3ccc(O)cc3)NC(=O)[C@H](CCCCN)NC(=O)[C@H](CO)NC(=O)[C@H](Cc3ccc(O)cc3)NC(=O)[C@H](CC(=O)O)NC(=O)[C@H](CO)NC(=O)[C@@H](NC(=O)[C@H](Cc3ccccc3)NC(=O)[C@@H](NC(=O)CNC(=O)[C@H](CCC(N)=O)NC(=O)C(C)(C)NC(=O)[C@@H](N)Cc3c[nH]cn3)[C@@H](C)O)[C@@H](C)O)C(=O)N[C@@H](CCC(N)=O)C(=O)N[C@@H](C)C(=O)N[C@@H](C)C(=O)N2)[C@@H](C)CC)C(=O)N[C@@H](Cc2c[nH]c3ccccc23)C(=O)N[C@@H](CC(C)C)C(=O)N[C@@H](CC(C)C)C(=O)N[C@@H](CCC(N)=O)C(=O)N[C@H](C(N)=O)[C@@H](C)O)[C@@H](O)[C@H](O)[C@H]1O [EU-A993, His1-Aib2-Gln3-Gly4-Thr5-Phe6-Thr7-Ser8-Asp9-Tyr10-Ser11-Lys12-Tyr13-Leu14-Asp15-Glu*16-Gln17-Ala18-Ala19-Lys*20-Glu21-Phe22-Ile23-Lys(N-omega(1-dodecylbeta-D-glucuronyl))24-Trp25-Leu26-Leu27-Gln28-Thr29-NH2]",503 mg/dL,305 mg/dL,324 mg/dL,426 mg/dL,essentially no change over 8 hrs,–,–,–,–,–
"CCCCCCCCCCCCO[C@@H]1O[C@H](C(=O)NCCCC[C@H](NC(=O)C(C)(C)NC(=O)[C@H](CC(=O)O)NC(=O)[C@H](CC(C)C)NC(=O)[C@H](Cc2ccc(O)cc2)NC(=O)[C@H](CCCCN)NC(=O)[C@H](CO)NC(=O)[C@H](Cc2ccc(O)cc2)NC(=O)[C@H](CC(=O)O)NC(=O)[C@H](CO)NC(=O)[C@@H](NC(=O)[C@](C)(Cc2ccccc2)NC(=O)[C@@H](NC(=O)CNC(=O)[C@H](CCC(N)=O)NC(=O)C(C)(C)NC(=O)[C@@H](N)Cc2c[nH]cn2)[C@@H](C)O)[C@@H](C)O)C(N)=O)[C@@H](O)[C@H](O)[C@H]1O [EU-A391] (H-H[Aib]QGT[αMeF]TSDYSKYLD[Aib]K(GlcA(β-D,1-O-dodecyl))-NH2; N-terminus assumed)",–,–,–,–,–,does not change,–,–,–,–
"CCCCCCCCCCCCO[C@@H]1O[C@H](CO[C@H]2O[C@H](C(=O)NCCCC[C@H](NC(=O)[C@@H](NC(=O)[C@H](Cc3ccccc3)NC(=O)[C@H](CCC(=O)O)NC(=O)[C@@H]3CCCCNC(=O)CC[C@H](NC(=O)[C@H](CC(=O)O)NC(=O)[C@H](CC(C)C)NC(=O)[C@H](Cc4ccc(O)cc4)NC(=O)[C@H](CCCCN)NC(=O)[C@H](CO)NC(=O)[C@H](Cc4ccc(O)cc4)NC(=O)[C@H](CC(=O)O)NC(=O)[C@H](CO)NC(=O)[C@@H](NC(=O)[C@H](Cc4ccccc4)NC(=O)[C@@H](NC(=O)CNC(=O)[C@H](CCC(N)=O)NC(=O)C(C)(C)NC(=O)[C@@H](N)Cc4c[nH]cn4)[C@@H](C)O)[C@@H](C)O)C(=O)N[C@@H](CCC(N)=O)C(=O)N[C@@H](C)C(=O)N[C@@H](C)C(=O)N3)[C@@H](C)CC)C(=O)N[C@@H](Cc3c[nH]c4ccccc34)C(=O)N[C@@H](CC(C)C)C(=O)N[C@@H](CC(C)C)C(=O)N[C@@H](CCC(N)=O)C(=O)N[C@H](C(N)=O)[C@@H](C)O)[C@H](O)[C@H](O)[C@H]2O)[C@@H](O)[C@H](O)[C@H]1O [EU-A1023, His1-Aib2-Gln3-Gly4-Thr5-Phe6-Thr7-Ser8-Asp9-Tyr10-Ser11-Lys12-Tyr13-Leu14-Asp15-Glu*16-Gln17 Ala18-Ala19-Lys*20-Glu21-Phe22-Ile23-Lys (N-omega (1-dodecyl beta-D-melibiouronyl)) 24-Trp25-Leu26-Leu27-Gln28-Thr29-NH2]",508 mg/dL,264 mg/dL,194 mg/dL,375 mg/dL,essentially no change over 8 hrs,–,507 mg/dL,310 mg/dL,355 mg/dL,375 mg/dL
